Data on 26 molecules can be found in patent US9475817B2 (BRISTOL-MYERS SQUIBB COMPANY, priority 2012, dated 2016).

Counter-ions that a name gives are not always drawn.

In one assay the target is CK1ε (Homo sapiens (Human), UniProt P49674). In words: CK1ε kinase assay (Caliper LabChip, fluoresceinated peptide substrate). The assay is classed as biochemical. The note with it: 200 pM CK1ε, 50 μM ATP, 1.5 μM peptide substrate, 22 hours room temperature. As to the method: (§1) CK1ε and CK1δ Kinase Assays
(§2) The kinase assay was performed in V-bottom 384-well plates. […] The reaction was incubated at room temperature for 22 hours and terminated by adding 45 μl of 35 mM EDTA to each sample. […] Compounds were dissolved at 10 mM in dimethylsulfoxide (DMSO) and evaluated at eleven concentrations. IC50 values were derived by non-linear regression analysis.

The next assay has as its target CK1δ (Homo sapiens (Human), UniProt P48730). The assay is described as follows: CK1δ kinase assay (Caliper LabChip, fluoresceinated peptide substrate). The assay is classed as biochemical. The note with it: 200 pM CK1δ, 50 μM ATP, 1.5 μM peptide substrate, 22 hours room temperature. As to the method:
as §1, §2

Chain of CK1δ (P48730 whole entry): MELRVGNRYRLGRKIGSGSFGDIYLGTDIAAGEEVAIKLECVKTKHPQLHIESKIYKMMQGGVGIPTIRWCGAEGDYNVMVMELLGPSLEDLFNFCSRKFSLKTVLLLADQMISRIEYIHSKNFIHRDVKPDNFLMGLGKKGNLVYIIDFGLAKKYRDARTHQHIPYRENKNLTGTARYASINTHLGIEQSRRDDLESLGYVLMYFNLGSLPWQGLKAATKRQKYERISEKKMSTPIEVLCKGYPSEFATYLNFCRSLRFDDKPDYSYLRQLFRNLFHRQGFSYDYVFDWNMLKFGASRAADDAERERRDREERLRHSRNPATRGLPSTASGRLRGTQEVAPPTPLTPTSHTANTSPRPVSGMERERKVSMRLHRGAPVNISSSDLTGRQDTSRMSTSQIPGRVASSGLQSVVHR
Chain of CK1ε (P49674 whole entry): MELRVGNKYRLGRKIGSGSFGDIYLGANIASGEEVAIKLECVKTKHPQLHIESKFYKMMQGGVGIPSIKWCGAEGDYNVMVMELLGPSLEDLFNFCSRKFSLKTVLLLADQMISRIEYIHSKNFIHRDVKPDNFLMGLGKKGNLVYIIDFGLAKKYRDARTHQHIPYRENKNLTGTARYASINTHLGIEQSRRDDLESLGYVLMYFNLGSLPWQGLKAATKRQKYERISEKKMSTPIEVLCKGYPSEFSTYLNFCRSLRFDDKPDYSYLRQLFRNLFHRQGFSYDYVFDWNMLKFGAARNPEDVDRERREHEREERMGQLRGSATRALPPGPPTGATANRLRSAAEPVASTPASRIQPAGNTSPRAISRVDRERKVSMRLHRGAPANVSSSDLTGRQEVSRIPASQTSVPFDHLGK

The IC50 is the concentration that inhibits the measured activity by half. Higher therefore signals a need for much substance. On to `Cn1cc(-c2ccc3nc(NC(=O)c4ccc(CCN5CCCC5)nc4)cn3n2)c(-c2ccc(F)cc2)n1` [Compound 72, N-(6-(3-(4-fluorophenyl)-1-methyl-1H-pyrazol-4-yl)imidazo[1,2-b]pyridazin-2-yl)-6-(2-(pyrrolidin-1-yl)ethyl)nicotinamide], for which the half-maximal inhibitory concentration (IC50) was 27.8 nM against CK1ε and 10 nM against CK1δ.

Turning to `Cn1nc(-c2ccc(F)cc2)c(-c2ccc3nc(NC(=O)c4ccncc4)cn3n2)c1-c1ccncc1` [Compound 204, N-(6-(3-(4-Fluorophenyl)-1-methyl-5-(pyridin-4-yl)-1H-pyrazol-4-yl)imidazo[1,2-b]pyridazin-2-yl)isonicotinamide], the half-inhibitory concentration (IC50) stood at 3.2 nM on CK1ε and 0.4 nM against CK1δ.

Take `Cn1cc(-c2ccc3nc(NC(=O)c4ccccn4)cn3n2)c(-c2ccc(F)cc2)n1` [Compound 96, N-(6-(3-(4-fluorophenyl)-1-methyl-1H-pyrazol-4-yl)imidazo[1,2-b]pyridazin-2-yl)picolinamide]: the values for the IC50 against CK1ε and at CK1δ were 42 nM and 11.8 nM, respectively.

On to `Cn1nc(-c2ccc(F)cc2)c(-c2ccc3nc(NC(=O)c4ccnc(F)c4)cn3n2)c1N1CCN(C(=O)CC(F)(F)F)CC1` [Compound 121, 2-Fluoro-N-(6-(3-(4-fluorophenyl)-1-methyl-5-(4-(3,3,3-trifluoropropanoyl)piperazin-1-yl)-1H-pyrazol-4-yl)imidazo[1,2-b]pyridazin-2-yl)isonicotinamide], for which the values for the IC50 at CK1ε and on CK1δ were 14.4 nM and 1.2 nM, respectively.

As to `COc1cc(C(=O)Nc2cn3nc(-c4cn(C)nc4-c4ccc(F)cc4)ccc3n2)ccn1` [Compound 49, N-(6-(3-(4-fluorophenyl)-1-methyl-1H-pyrazol-4-yl)imidazo[1,2-b]pyridazin-2-yl)-2-methoxyisonicotinamide], the IC50 was found to be 13.6 nM at CK1ε and 6.1 nM against CK1δ.

Turning to `Cn1cc(-c2ccc3nc(NC(=O)c4ccc(C(F)(F)F)cn4)cn3n2)c(-c2ccc(F)cc2)n1` [Compound 74, N-(6-(3-(4-fluorophenyl)-1-methyl-1H-pyrazol-4-yl)imidazo[1,2-b]pyridazin-2-yl)-5-(trifluoromethyl) picolinamide], the IC50 was found to be 232 nM at CK1ε and 34.6 nM against CK1δ.

For the molecule `Cn1cc(-c2ccc3nc(NC(=O)C4CCOCC4)cn3n2)c(-c2ccc(F)cc2)n1` [Compound 40, N-(6-(3-(4-fluorophenyl)-1-methyl-1H-pyrazol-4-yl)imidazo[1,2-b]pyridazin-2-yl)tetrahydro-2H-pyran-4-carboxamide], the concentration for half-maximal inhibition (IC50) at CK1ε was found to be 18 nM; against CK1δ, 5.4 nM.

On to `Cn1cc(-c2ccc3nc(NC(=O)c4cc(C(C)(C)C)ncn4)cn3n2)c(-c2ccc(F)cc2)n1` [Compound 32, 6-(tert-butyl)-N-(6-(3-(4-fluorophenyl)-1-methyl-1H-pyrazol-4-yl)imidazo[1,2-b]pyridazin-2-yl)pyrimidine-4-carboxamide], for which the IC50 on CK1ε was 98.3 nM; against CK1δ, 10.1 nM.

For `Cn1nc(-c2ccc(F)cc2)c(-c2ccc3nc(NC(=O)c4cc(F)nc(F)c4)cn3n2)c1N1CCOCC1` [Compound 145, 2,6-difluoro-N-(6-(3-(4-fluorophenyl)-1-methyl-5-morpholino-1H-pyrazol-4-yl)imidazo[1,2-b]pyridazin-2-yl) isonicotinamide], the half-inhibitory concentration (IC50) amounted to 22.8 nM on CK1ε and 1.4 nM at CK1δ.

Regarding `Cn1cc(-c2ccc3nc(NC(=O)c4ccc(F)c(C#N)c4)cn3n2)c(-c2ccc(F)cc2)n1` [Compound 56, 3-cyano-4-fluoro-N-(6-(3-(4-fluorophenyl)-1-methyl-1H-pyrazol-4-yl)imidazo[1,2-b]pyridazin-2-yl)benzamide], the IC50 came to 44.9 nM at CK1ε and 14.4 nM at CK1δ.

In the case of `O=C(Nc1cn2nc(-c3cn(C4CC4)nc3-c3ccc(F)cc3)ccc2n1)c1cc(F)nc(F)c1` [Compound 105, N-(6-(1-cyclopropyl-3-(4-fluorophenyl)-1H-pyrazol-4-yl)imidazo[1,2-b]pyridazin-2-yl)-2,6-difluoroisonicotinamide], the figures for the IC50 at CK1ε and on CK1δ were 46.5 nM and 4.8 nM, respectively.

For the molecule `Cn1cc(-c2ccc3nc(NC(=O)c4ccccc4)c(C#N)n3n2)c(-c2ccc(F)cc2)n1` [Compound 190, N-(3-Cyano-6-(3-(4-fluorophenyl)-1-methyl-1H-pyrazol-4-yl)imidazo[1,2-b]pyridazin-2-yl)benzamide], the IC50 against CK1ε came out at 14.5 nM; against CK1δ it was 4.2 nM.

Turning to `Cn1cc(-c2ccc3nc(NC(=O)c4ccnc(F)c4)cn3n2)c(-c2ccc(F)cc2)n1` [Compound 54, 2-fluoro-N-(6-(3-(4-fluorophenyl)-1-methyl-1H-pyrazol-4-yl)imidazo[1,2-b]pyridazin-2-yl)isonicotinamide], the half-inhibitory concentration (IC50) against CK1ε worked out at 14 nM; at CK1δ it was 4.5 nM.

In the case of `O=C(Nc1cn2nc(-c3cn(C4CC4)nc3-c3ccc(F)cc3)ccc2n1)C1CC1` [Compound 101, N-(6-(1-Cyclopropyl-3-(4-fluorophenyl)-1H-pyrazol-4-yl)imidazo[1,2-b]pyridazin-2-yl)cyclopropanecarboxamide], the figures for the IC50 against CK1ε and on CK1δ were 170 nM and 28.1 nM, respectively.

With `Cn1cc(-c2ccc3nc(NC(=O)c4csc(-c5ccc(Cl)cc5)n4)cn3n2)c(-c2ccc(F)cc2)n1` [Compound 11, 2-(4-chlorophenyl)-N-(6-(3-(4-fluorophenyl)-1-methyl-1H-pyrazol-4-yl)imidazo[1,2-b]pyridazin-2-yl)thiazol-4-carboxamide], the values for the IC50 against CK1ε and at CK1δ were 899 nM and 24.6 nM, respectively.

As to `CN1CCC(c2c(-c3ccc4nc(NC(=O)c5ccncc5)cn4n3)c(-c3ccc(F)cc3)nn2C)CC1` [Compound 165, N-(6-(3-(4-Fluorophenyl)-1-methyl-5-(1-methylpiperidin-4-yl)-1H-pyrazol-4-yl)imidazo[1,2-b]pyridazin-2-yl)isonicotinamide], the figures for the IC50 at CK1ε and at CK1δ were 5 nM and 2.7 nM, respectively.

In the case of `Cn1cc(-c2ccc3nc(NC(=O)c4ccncc4)c(-c4ccncc4)n3n2)c(-c2ccc(F)cc2)n1` [Compound 194, N-(6-(3-(4-Fluorophenyl)-1-methyl-1H-pyrazol-4-yl)-3-(pyridin-4-yl)imidazo[1,2-b]pyridazin-2-yl)isonicotinamide, 2 TFA], the IC50 came out at 554 nM on CK1ε and 97 nM against CK1δ.

Turning to `Cc1ccncc1C(=O)Nc1cn2nc(-c3cn(C)nc3-c3ccc(F)cc3)ccc2n1` [Compound 73, N-(6-(3-(4-fluorophenyl)-1-methyl-1H-pyrazol-4-yl)imidazo[1,2-b]pyridazin-2-yl)-4-methylnicotinamide], the values for the IC50 on CK1ε and against CK1δ were 6.4 nM and 2.6 nM, respectively.

In the case of `Cc1cc(C(=O)Nc2cn3nc(-c4cn(C)nc4-c4ccc(F)cc4)ccc3n2)ccn1` [Compound 52, N-(6-(3-(4-fluorophenyl)-1-methyl-1H-pyrazol-4-yl)imidazo[1,2-b]pyridazin-2-yl)-2-methylisonicotinamide], the values for the IC50 against CK1ε and at CK1δ were 17.8 nM and 7.6 nM, respectively.

As to `Cn1cc(-c2ccc3nc(NC(=O)c4ccncc4)c(Br)n3n2)c(-c2ccc(F)cc2)n1` [Compound 193, N-(3-Bromo-6-(3-(4-fluorophenyl)-1-methyl-1H-pyrazol-4-yl)imidazo[1,2-b]pyridazin-2-yl)isonicotinamide], the IC50 against CK1ε was found to be 102 nM; at CK1δ it was 17 nM.

`Cc1nc(-c2ccncc2)sc1C(=O)Nc1cn2nc(-c3c(-c4ccc(F)cc4)nn(C)c3C3CCOCC3)ccc2n1` [Compound 200, N-(6-(3-(4-Fluorophenyl)-1-methyl-5-(tetrahydro-2H-pyran-4-yl)-1H-pyrazol-4-yl)imidazo[1,2-b]pyridazin-2-yl)-4-methyl-2-(pyridin-4-yl)thiazole-5-carboxamide]: the IC50 on CK1ε was found to be 3 nM; against CK1δ, 0.3 nM.

Consider `Cn1cc(-c2ccc3nc(NC(=O)C45CC6CC(C)(CC(C)(C6)C4)C5)cn3n2)c(-c2ccc(F)cc2)n1` [Compound 94, (1,3,5S7)-N-(6-(3-(4-fluorophenyl)-1-methyl-1H-pyrazol-4-yl)imidazo[1,2-b]pyridazin-2-yl)-3,5-dimethyladamantane-1-carboxamide], for which the figures for the IC50 against CK1ε and on CK1δ were 34.4 nM and 8.3 nM, respectively.

Take `Cc1nc(-c2ccccc2)sc1C(=O)Nc1cn2nc(-c3cn(C)nc3-c3ccc(F)cc3)ccc2n1` [Compound 7, N-(6-(3-(4-fluorophenyl)-1-methyl-1H-pyrazol-4-yl)imidazo[1,2-b]pyridazin-2-yl)-4-methyl-2-phenylthiazol-5-carboxamide]: the results for the IC50 against CK1ε and on CK1δ were 34.1 nM and 8.3 nM, respectively.

Regarding `Cn1cc(-c2ccc3nc(NC(=O)c4cc(O)ncn4)cn3n2)c(-c2ccc(F)cc2)n1` [Compound 100, N-(6-(3-(4-fluorophenyl)-1-methyl-1H-pyrazol-4-yl)imidazo[1,2-b]pyridazin-2-yl)-6-hydroxypyrimidine-4-carboxamide], the results for the IC50 at CK1ε and against CK1δ were 28.8 nM and 9.4 nM, respectively.

As for `Cn1nc(-c2ccc(F)cc2)c(-c2ccc3nc(NC(=O)c4ccncc4)cn3n2)c1C1CCN(Cc2ccon2)CC1` [Compound 169, N-(6-(3-(4-fluorophenyl)-5-(1-(isoxazol-3-ylmethyl)piperidin-4-yl)-1-methyl-1H-pyrazol-4-yl)imidazo[1,2-b]pyridazin-2-yl)isonicotinamide], the figures for the 50% inhibitory concentration (IC50) on CK1ε and against CK1δ were 0.8 nM and 1.4 nM, respectively.

As to `Cn1nc(-c2ccc(F)cc2)c(-c2ccc3nc(NC(=O)c4ccnc(F)c4)cn3n2)c1C1CCNCC1` [Compound 148, 2-Fluoro-N-(6-(3-(4-fluorophenyl)-1-methyl-5-(piperidin-4-yl)-1H-pyrazol-4-yl)imidazo[1,2-b]pyridazin-2-yl)isonicotinamide], the IC50 against CK1ε was found to be 2.6 nM; at CK1δ it was 2.1 nM.
